Data reported in patent publication US10980811B2, “Reversal of fosfomycin resistance” (University of Pittsburgh—Of the Commonwealth System of …, priority 2017, dated 2021).
Values after ≈ are worked out from the molar mass of the structure shown. Where two headings read alike, the source gives them in different places.

What was measured:
FosA3 Y131F = FosA3 Y131F (Escherichia coli, UniProt D7UQM0, Y131F); experiment: Tryptophan fluorescence binding studies
FosA3 W46A = FosA3 W46A (Escherichia coli, UniProt D7UQM0, W46A); experiment: biochemical
[1] = target: FosA^KP (K. pneumoniae chromosomal FosA) (Klebsiella pneumoniae, UniProt W8UNW6); experiment: FosA screening assay (monochlorobimane fluorescence, glutathione consumption); assay type: biochemical
FosA3 S36A = FosA3 S36A (Escherichia coli, UniProt D7UQM0, S36A); experiment: Tryptophan fluorescence binding studies
[2] = test system: FosA3-producing E. coli YD472; experiment: Growth curve analysis, FOM dose response with or without ANY1; assay type: cell-based; conditions: 112 μg/mL ANY1; P=0.04
E. coli MurA = E. coli MurA (Escherichia coli, UniProt P0A749); experiment: Isothermal titration calorimetry; assay type: binding; conditions: data not shown
FosA = FosA (Klebsiella pneumoniae, UniProt W8UNW6); experiment: Steady-state kinetics of ANY1 inhibition of FosA activity; assay type: biochemical; conditions: for Vmax: 0-50 mM fosfomycin
Experimental: Assays were carried out in a volume of 50 μl at 25° C. in 0.1 M sodium phosphate buffer (pH 8.0) containing 50 mM KCl, 25 μM MnCl2, 30 mM glutathione, and 0-50 mM fosfomycin. A 100 nM concentration of FosA was used to initiate the reaction, which was quenched after 20 minutes for FosA. Reactions were quenched by the addition of 150 μl methanol. Quenched reactions were diluted in 100 μl of 0.1 M sodium phosphate buffer (pH 8.0) containing 1 mM EDTA. Following the addition of 500 μM monochlorobimane, the concentration of glutathione was established by fluorescence spectroscopy using a SpectraMax M2 plate reader (Molecular Devices). A standard curve was prepared using 0 to 750 μM glutathione. Data were fitted to Michaelis Menten equations using SigmaPlot (Systat Software Inc., San Jose, Calif.).

[3] = test system: fosfomycin-resistant Escherichia coli strain containing a deletion in the uhpT gene; experiment: Growth curves of FosA-non-producing uhpT deletion strain; assay type: cell-based; conditions: absence and presence of 32 μg/mL fosfomycin; strain without FosA gene
Experimental: (§1) An overnight culture of each antibiotic-resistant bacterium was grown in Mueller-Hinton Broth at 37° C., 150 rpm. The following day, the culture was diluted such that its OD600 was 0.2. The diluted culture was allowed to grow at 37° C. for 1 h. Following this, the culture was diluted such that its OD600 was 0.1. In a 96-well, round-bottom plate, three groups were set-up. […] Group three contained 10 two-fold dilutions of fosfomycin (0-1024 μg/mL). All groups contained 25% volume of the […] and 25 μg/mL glucose-6-phosphate. The plate was incubated at 37° C. for up to […]. The OD600 was assessed every […]. Data was analyzed in PRISM software or SigmaPlot® software (Systat Software Inc., San Jose, Calif.). The initial OD600 subtracted as background, and fit with a logistic growth curve.
FIGS. 8A-8B show the growth curves of a fosfomycin-resistant Escherichia coli strain containing a deletion in the uhpT gene. […] Fosfomycin resistance is conferred by decreased transport of the antibiotic across the bacterial cell wall.

[4] = test system: KPC-producing clinical strain E. cloacae YDC612; experiment: Growth curve analysis, FOM dose response with or without ANY1; assay type: cell-based; conditions: 112 μg/mL ANY1; P<0.05
HK2 cells = experiment: CellTiter-Glo luminescent cell viability assay; assay type: cell-based, human; conditions: 0-224 μg/mL ANY1; data not shown
Experimental: (§2) In all cases, cell viability was assessed using the CellTiter-Glo® luminescent cell viability assay.

FosA3 T9A = FosA3 T9A (Escherichia coli, UniProt D7UQM0, T9A); experiment: Tryptophan fluorescence binding studies
[5] = target: FosA^KP (chromosomal K. pneumoniae FosA) (Klebsiella pneumoniae, UniProt W8UNW6); experiment: Isothermal titration calorimetry; assay type: binding
FosA3 WT = FosA3 WT (Escherichia coli, UniProt D7UQM0); experiment: Tryptophan fluorescence binding studies
[6] = test system: fosfomycin-resistant, FosA-producing Pseudomonas aeruginosa; experiment: Growth inhibition of fosfomycin-resistant FosA-producing bacteria; assay type: cell-based; conditions: with 32 μg/mL fosfomycin; P. aeruginosa
Experimental: (§3) Each bacterial strain is resistant to fosfomycin and caries the species-specific fosfomycin-modifying gene encoding FosA.
as §1

[7] = test system: fosfomycin-resistant, FosA-producing Escherichia coli; experiment: as above; assay type: cell-based; conditions: with 32 μg/mL fosfomycin; E. coli
Experimental: as §3, §1

[8] = test system: fosfomycin-resistant, FosA-producing Enterobacter cloacae; experiment: as above; assay type: cell-based; conditions: with 32 μg/mL fosfomycin; E. cloacae
Experimental: as §3, §1

[9] = test system: fosfomycin-resistant, FosA-producing Klebsiella pneumoniae; experiment: as above; assay type: cell-based; conditions: with 32 μg/mL fosfomycin; K. pneumoniae
Experimental: as §3, §1

FosA3 W34A = FosA3 W34A (Escherichia coli, UniProt D7UQM0, W34A); experiment: biochemical
FosA3 Y39F = FosA3 Y39F (Escherichia coli, UniProt D7UQM0, Y39F); experiment: Tryptophan fluorescence binding studies
FosA3 R96A = FosA3 R96A (Escherichia coli, UniProt D7UQM0, R96A); experiment: Tryptophan fluorescence binding studies
[10] = test system: KPC-producing clinical strain S. marcescens YDC760-2; experiment: Growth curve analysis, FOM dose response with or without ANY1; assay type: cell-based; conditions: 112 μg/mL ANY1; P<0.05
FosA3 Y65F = FosA3 Y65F (Escherichia coli, UniProt D7UQM0, Y65F); experiment: Tryptophan fluorescence binding studies
[11] = test system: carbapenemase (KPC)-producing K. pneumoniae clinical strain I1; experiment: Bacterial growth curve analysis (Gompertz model); assay type: cell-based; conditions: for IC50: Klebsiella pneumoniae, read-out: IC50 for FOM (concentration decreasing maximum growth by 50%)
Experimental: Briefly, an overnight culture of K. pneumoniae I1 was diluted in Mueller-Hinton broth in a 96-well plate, incubated at 37° C. (150 rpm), and OD600 was assessed every 30 min.
The growth curves were modeled using a modified 3-parameter Gompertz equation (Zwietering et al., Appl Environ Microbiol 1990, 56(6)1875-81), which facilitated quantification of the lag time (min), growth rate (OD units/min) and maximum growth (OD units). […] The maximum growth value was determined from the curves in FIGS. 12A-12C using a 3-parameter Gompertz equation.

OK cells = experiment: CellTiter-Glo luminescent cell viability assay; assay type: cell-based, marsupial; conditions: 0-224 μg/mL ANY1; data not shown
Experimental: as §2

[12] = test system: FosB enzyme from Gram-positive pathogens; experiment: Isothermal titration calorimetry; assay type: binding; conditions: data not shown
[13] = test system: human peripheral blood mononuclear cells; experiment: CellTiter-Glo luminescent cell viability assay; assay type: cell-based; conditions: 0-224 μg/mL ANY1; data not shown
Experimental: as §2

K. pneumoniae I1 = experiment: Time-kill experiments; assay type: cell-based; conditions: FOM with ANY1
FosA3 Y131A = FosA3 Y131A (Escherichia coli, UniProt D7UQM0, Y131A); experiment: Tryptophan fluorescence binding studies
[14] = test system: chromosomal FosA genes expressed in E. coli; conditions: cited from earlier work
[15] = test system: ESBL- and carbapenemase-producing Klebsiella pneumoniae; conditions: ESBL- and carbapenemase-producing K. pneumoniae; cited from earlier work

Q: Which Kd (FosA3 Y131F) does the source give for `O=c1[nH]n2cc(-c3n[nH]c(-c4cnc5c(Br)c(=O)[nH]n5c4)c3[N+](=O)[O-])cnc2c1Br` [ANY1, 3-bromo-6-[3-(3-bromo-2-oxo-1H-pyrazolo[1,5-a]pyrimidin-6-yl)-4-nitro-1H-pyrazol-5-yl]-1H-pyrazolo[1,5-a]pyrimidin-2-one] here?
A: 551 ± 28 nM

Q: What about the Kd (FosA3 W46A) of the same molecule?
A: 2470 ± 111 nM

Q: What about the IC50 [1] of the same molecule?
A: 5000 nM

Q: And the Kd (FosA3 S36A)?
A: 1360 ± 132 nM

Q: What about the “Decrease of the IC50 for FOM by ANY1” value [2] of the same molecule?
A: 1.8 fold

Q: What about the “Binding to E. coli MurA” value (E. coli MurA) of the same molecule?
A: did not bind

Q: What about the Vmax (FosA; 5 μM ANY1) of the same molecule?
A: 118.2

Q: What about the Vmax (FosA; 10 μM ANY1) of the same molecule?
A: 107

Q: What about the Vmax (FosA; 20 μM ANY1) of the same molecule?
A: 154.6

Q: And the “Mode of inhibition with respect to glutathione” value (FosA; data not shown)?
A: non-competitive inhibitor

Q: What about the “Mode of inhibition with respect to fosfomycin binding to FosA” value (FosA; varying fosfomycin, 0-20 μM ANY1) of the same molecule?
A: competitive inhibitor

Q: What about the “Inhibition of bacterial growth” value [3] of the same molecule?
A: did not inhibit the bacterial growth

Q: And the “Decrease of the IC50 for FOM by ANY1” value [4]?
A: 23 fold

Q: What about the “Impact on cell viability” value (HK2 cells) of the same molecule?
A: no impact on cell viability

Q: And the Kd (FosA3 T9A)?
A: 1580 ± 97.6 nM

Q: And the Kd [5]?
A: 180 ± 30 nM

Q: And the Kd (FosA3 WT)?
A: 441 ± 50.1 nM

Q: What about the “Inhibition of FosA in the strain, reversing fosfomycin resistance (growth curves)” value (“Inhibition of FosA in the strain” for short) [6] of the same molecule?
A: effectively inhibited FosA

Q: What about the “Inhibition of FosA in the strain” value [7] of the same molecule?
A: effectively inhibited FosA

Q: What about the “Inhibition of FosA in the strain” value [8] of the same molecule?
A: effectively inhibited FosA

Q: And the “Inhibition of FosA in the strain” value [9]?
A: effectively inhibited FosA

Q: What about the Kd (FosA3 W34A) of the same molecule?
A: 2620 ± 205 nM

Q: And the Kd (FosA3 Y39F)?
A: 868 ± 201 nM

Q: What about the Kd (FosA3 R96A) of the same molecule?
A: 541 ± 90.1 nM

Q: And the “Decrease of the IC50 for FOM by ANY1” value [10]?
A: > 100 fold

Q: What about the Kd (FosA3 Y65F) of the same molecule?
A: 784 ± 74.7 nM

Q: And the “Reduction of FOM IC50 by ANY1” value ([11]; 112 μg/mL ANY1, P<0.05)?
A: ~6 fold

Q: What about the “Bacterial growth when FOM was combined with ANY1” value ([11]; FOM 32, 64, 128 μg/mL with ANY1 14-224 μg/mL, dose dependent) of the same molecule?
A: significantly attenuated

Q: And the “Effect of ANY1 alone on growth” value ([11]; absence of FOM)?
A: no effect

Q: What about the “Effect of ANY1 on the activity of gentamicin” value ([11]; gentamicin ± ANY1 dose-response) of the same molecule?
A: did not alter the activity of gentamicin

Q: And the “Increase in FOM activity (maximum growth)” value ([11]; highest ANY1 concentration tested)?
A: ~6 fold

Q: What about the “Impact on cell viability” value (OK cells) of the same molecule?
A: no impact on cell viability

Q: What about the “Binding to FosB” value [12] of the same molecule?
A: did not bind

Q: What about the “Impact on cell viability” value [13] of the same molecule?
A: no impact on cell viability

Q: What about the “Effect of ANY1 on FOM activity in time-kill” value (K. pneumoniae I1) of the same molecule?
A: significantly increased FOM activity

Q: What about the Kd (FosA3 Y131A) of the same molecule?
A: 4880 ± 770 nM

Q: With `C[C@@H]1O[C@@H]1P(=O)(O)O` [FOM, Fosfomycin] as the molecule, how does the IC50 ([11]; absence of ANY1) read?
A: 144 ± 16.5 µg/mL (≈ 1.04 mM)

Q: What about the IC50 ([11]; presence of ANY1 (112 μg/mL)) of the same molecule?
A: 23.2 ± 4.3 µg/mL

Q: And the MIC ([14]; FosA of Enterobacter aerogenes)?
A: >1024 µg/mL

Q: What about the MIC ([14]; FosA of Enterobacter cloacae) of the same molecule?
A: >1024 µg/mL

Q: And the MIC ([14]; FosA of Klebsiella oxytoca)?
A: >1024 µg/mL

Q: And the MIC ([14]; FosA of Klebsiella pneumoniae)?
A: >1024 µg/mL

Q: And the MIC ([14]; FosA of Morganella morganii)?
A: >1024 µg/mL

Q: What about the MIC ([14]; FosA of Proteus mirabilis) of the same molecule?
A: 9.8 µg/mL (≈ 0.071 mM)

Q: What about the MIC ([14]; FosA of Providencia rettgeri) of the same molecule?
A: >1024 µg/mL

Q: What about the MIC ([14]; FosA of Providencia stuartii) of the same molecule?
A: >1024 µg/mL

Q: And the MIC ([14]; FosA of Pseudomonas aeruginosa)?
A: 16 µg/mL (≈ 0.116 mM)

Q: And the MIC ([14]; FosA of Serratia marcescens)?
A: >1024 µg/mL

Q: And the MIC50 [15]?
A: ~32 µg/mL (≈ 0.232 mM)

Q: And the MIC90 [15]?
A: ~128 µg/mL (≈ 0.927 mM)
